Measured values published in publication PMC5463993, “Identification of an Efflux Transporter LmrB Regulating Stress Response and Extracellular Polysaccharide Synthesis in Streptococcus mutans” (Frontiers in Microbiology, 2017).

Target: T1, LmrB (Streptococcus mutans, UniProt Q8DUY5)
T1 construct: full-length (454 aa) with His-tag from pET28a, expressed in E. coli BL21 (DE3) cells; tested in whole cells
Test: fluorometric efflux assay in E. coli BL21 (DE3) expressing LmrB versus empty vector
Assay type: cell-based
Settings: EtBr-loaded whole cells in PBS; CCCP (100 uM) as control blocker

T1 sequence (Q8DUY5 entry or part of it): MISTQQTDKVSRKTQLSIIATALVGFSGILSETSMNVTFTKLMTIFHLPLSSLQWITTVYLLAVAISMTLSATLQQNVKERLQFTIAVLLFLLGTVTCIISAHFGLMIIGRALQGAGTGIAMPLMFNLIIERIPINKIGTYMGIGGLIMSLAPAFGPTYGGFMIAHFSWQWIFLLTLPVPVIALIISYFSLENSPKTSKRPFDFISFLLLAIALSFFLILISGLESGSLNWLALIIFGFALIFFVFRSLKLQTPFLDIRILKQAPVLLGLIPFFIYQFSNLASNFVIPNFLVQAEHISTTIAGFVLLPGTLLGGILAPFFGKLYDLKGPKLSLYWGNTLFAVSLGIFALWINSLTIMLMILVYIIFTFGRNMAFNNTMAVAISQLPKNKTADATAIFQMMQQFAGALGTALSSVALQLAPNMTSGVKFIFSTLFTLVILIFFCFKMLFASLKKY

Compound: CC[n+]1c(-c2ccccc2)c2cc(N)ccc2c2ccc(N)cc21 [Ethidium bromide]
- fluorometric efflux assay in E. coli BL21 (DE3) expressing LmrB versus empty vec: the efflux activity of E. coli was higher for the bacterial culture harboring cloned pET28a-lmrB
